# Source: patent US20090326029A1, “NON-CYCLIC SUBSTITUTED BENZIMIDAZOLE THIOPHENE BENZYL ETHER COMPOUNDS” (priority 2006, published 2009)
# Where a name gives a salt, the structure may show the parent alone.
# Tests used:
# PLK1 kinase domain = target: T1, PLK1 kinase domain (Homo sapiens, UniProt P53350); test: Assay for Inhibition of PLK1 (SPA kinase assay); type: biochemical; conditions: 2 nM PLK1 kinase domain, 1 μM ATP, 1 μM substrate peptide, 22° C.; read-out: PLK1 pIC50 (converted)
# T1 construct: 6xHis (leader MKKGHHHHHHD) (N); made in house; host or cells: baculovirus infected T. ni cells
# Experimental: 6× N-terminal His-tagged PLK kinase domain (amino acids 21-346 preceded by MKKGHHHHHHD) SEQ ID: No. 1. was prepared from baculovirus infected T. ni cells under polyhedrin promoter control. All procedures were performed at 4° C. Cells were lysed in 50 mM HEPES, 200 mM NaCl, 50 mM imidazole, 5% glycerol; pH 7.5. The homogenate was centrifuged at 14K rpm in a SLA-1500 rotor for 1 hr and the supernatant filtered through a 1.2 micron filter. The supernatant was loaded onto a Nickel chelating Sepharose (Amersham Pharmacia) column and washed with lysis buffer. Protein was eluted using 20%, 30% and 100% buffer B steps where buffer B was 50 mM HEPES, 200 mM NaCl, 300 mM imidazole, 5% glycerol; pH 7.5. Fractions containing PLK were determined by SDS-PAGE. Fractions containing PLK were diluted five-fold with 50 mM HEPES, 1 mM DTT, 5% glycerol; pH 7.5, then loaded on an SP Sepharose (Amersham Pharmacia) column. After washing the column with 50 mM HEPES, 1 mM DTT, 5% glycerol; pH 7.5, PLK was step eluted with 50 mM HEPES, 1 mM DTT, 500 mM NaCl; 5% glycerol; pH 7.5. PLK was concentrated using a 10 kDa molecular weight cutoff membrane and then loaded onto a Superdex 200 gel filtration (Amersham Pharmacia) column equilibrated in 25 mM HEPES, 1 mM DTT, 500 mM NaCl, 5% glycerol; pH 7.5. Fractions containing PLK were determined by SDS-PAGE. PLK was pooled, aliquoted and stored at −80° C. Samples were quality controlled using mass spectrometry, N-terminal sequencing and amino acid analysis.
# All measurements were obtained under conditions where signal production increased linearly with time and enzyme. Test compounds were added to white 384-well assay plates (0.1 μL for 10 μL and some 20 μL assays, 1 μL for some 20 μL assays) at variable known concentrations in 100% DMSO. DMSO (I-5% final, as appropriate) and EDTA (65 mM in reaction) were used as controls. Reaction Mix was prepared as follows at 22° C.: • 25 mM HEPES, pH 7.2 • 15 mM MgCl2 • 1 μM ATP • 0.05 μCi/well ^33P-γ ATP (10 Ci/mMol) • 1 μM substrate peptide (Biotin-Ahx-SFNDTLDFD) SEQ ID: No. 2. • 0.15 mg/mL BSA • 1 mM DTT • 2 nM PLK1 kinase domain (added last)
# Reaction Mix (10 or 20 μL) was quickly added to each well immediately following addition of enzyme via automated liquid handlers and incubated 1-1.5 h at 22° C. The 20 μL enzymatic reactions were stopped with 50 μL of stop mix (50 mM EDTA, 4.0 mg/mL Streptavidin SPA beads in Standard Dulbecco's PBS (without Mg^2+ and Ca^2+), 50 μM ATP) per well. The 10 μL reactions were stopped with 10 μL of stop mix (50 mM EDTA, 3.0 mg/mL Streptavidin-coupled SPA Imaging Beads (“LeadSeeker”) in Standard Dulbecco's PBS (without Mg^2+ and Ca^2+), 50 μM ATP) per well. Plates were sealed with clear plastic seals, spun at 500×g for 1 min or settled overnight, and counted in Packard TopCount for 30 seconds/well (regular SPA) or imaged using a Viewlux imager (LeadSeeker SPA). Signal above background (EDTA controls) was converted to percent inhibition relative to that obtained in control (DMSO-only) wells.
# HCT116 = test: Inhibition of Cell Proliferation (methylene blue or CellTiter-Glo); type: cell-based; conditions: Homo sapiens, HCT-116; HCT116 cell growth, seventy two hours post-treatment, 10% fetal bovine serum
# Experimental: Exponentially growing cell lines of different tumor origins, cultured in appropriate media containing 10% fetal bovine serum at 37° C. in a 5% CO2 incubator were plated at low density (less than 2000 cells/well) in 96-well plates. Twenty four hours post-plating, cells were treated with different concentrations of test compounds ranging from 10 uM to 0.04 nM. Several wells were left untreated as a control. Seventy two hours post-treatment, cell numbers were determined using different techniques; 100 μl per well of methylene blue (Sigma M9140) (0.5% in 50:50 Ethanol:water), or 50-100 ul per well of CellTiter-Glo (Promega #G7573). For methylene blue staining, stain was incubated at room temperature for 30 minutes before plates were rinsed and dye solubilized in 1% N-lauroyl sarcosine, sodium salt, (Sigma L5125, in PBS). Plates were read on a microplate reader, measuring the OD at 620 nm. For CellTiter-Glo, plates were incubated at room temperature for 15 minutes and the chemiluminescent signal was read on the Victor V or Envison 2100 reader.
# Percent inhibition of cell growth was expressed as percent proliferation relative to 100% proliferation (control). Concentration of test compound that inhibited 50% of cell growth (IC50) was determined by 4 parameter fit of data using XLfit, (value of no cell control was substracted from all samples for background). The data are shown in Table 1 and Table 2 below and represent a compilation of several different experiments each performed using the general parameters outlined above, although minor variations may have been employed in some instances. In Table 1 and Table 2, +=IC50>1+M; ++=IC50 0.5-1 μM: +++=IC50<0.5 μM.
# T1 sequence (P53350 21-346): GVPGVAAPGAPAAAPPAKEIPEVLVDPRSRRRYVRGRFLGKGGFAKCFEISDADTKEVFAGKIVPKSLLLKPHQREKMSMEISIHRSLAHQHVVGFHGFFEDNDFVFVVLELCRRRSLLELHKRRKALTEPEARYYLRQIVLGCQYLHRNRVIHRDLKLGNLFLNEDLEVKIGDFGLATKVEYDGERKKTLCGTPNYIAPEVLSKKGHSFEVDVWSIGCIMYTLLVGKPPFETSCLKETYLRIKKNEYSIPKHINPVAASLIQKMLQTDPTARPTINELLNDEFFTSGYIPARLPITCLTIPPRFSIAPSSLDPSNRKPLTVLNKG
Compound,IC50 (PLK1 kinase domain) [nM],IC50 (HCT116) [nM]
"COc1cc2ncn(-c3cc(O[C@H](C)c4cc(C(=O)NCCN(C)C)ccc4Cl)c(C(N)=O)s3)c2cc1OC [Example 1, 5-[5,6-Bis(methyloxy)-1H-benzimidazol-1-yl]-3-({(1R)-1-[2-chloro-5-({[2-(dimethylamino)ethyl]amino}carbonyl)phenyl]ethyl}oxy)-2-thiophenecarboxamide formate]",100 to 1000,
"COc1cc2ncn(-c3cc(O[C@H](C)c4cccc(NCCO)c4Cl)c(C(N)=O)s3)c2cc1OC [Example 2, 5-[5,6-Bis(methyloxy)-1H-benzimidazol-1-yl]-3-[((1R)-1-{2-chloro-3-[(2-hydroxyethyl)amino]phenyl}ethyl)oxy]-2-thiophenecarboxamide]",,< 500
"COc1cc2ncn(-c3cc(O[C@H](C)c4cccc(OCCN)c4Cl)c(C(N)=O)s3)c2cc1OC [Example 3, 3-[((1R)-1-{3-[(2-aminoethyl)oxy]-2-chlorophenyl}ethyl)oxy]-5-[5,6-bis(methyloxy)-1H-benzimidazol-1-yl]-2-thiophenecarboxamide]",< 100,< 500
"C[C@@H](Oc1cc(-n2cnc3ccccc32)sc1C(N)=O)c1cccc(OCCN)c1Cl [Example 4, 3-[((1R)-1-{3-[(2-Aminoethyl)oxy]-2-chlorophenyl}ethyl)oxy]-5-(1H-benzimidazol-1-yl)-2-thiophenecarboxamide]",< 100,< 500

# The remaining lines, values ahead:
IC50 (PLK1 kinase domain) [nM],IC50 (HCT116) [nM],Compound
< 100,< 500,C[C@@H](Oc1cc(-n2cnc3cc(-c4cnn(C)c4)ccc32)sc1C(N)=O)c1cccc(OCCCO)c1Cl [Example 5]
< 100,< 500,"C[C@@H](Oc1cc(-n2cnc3cc(-c4cnn(C)c4)ccc32)sc1C(N)=O)c1cccc(OCCO)c1Cl [Example 6, 3-[((1R)-1-{2-chloro-3-[(2-hydroxyethyl)oxy]phenyl}ethyl)oxy]-5-[5-(1-methyl-1H-pyrazol-4-yl)-1H-benzimidazol-1-yl]-2-thiophenecarboxamide]"
< 100,< 500,"C[C@@H](Oc1cc(-n2cnc3cc(-c4cnn(C)c4)ccc32)sc1C(N)=O)c1cccc(OCCN)c1Cl [Example 7, 3-[((1R)-1-{3-[(2-aminoethyl)oxy]-2-chlorophenyl}ethyl)oxy]-5-[5-(1-methyl-1H-pyrazol-4-yl)-1H-benzimidazol-1-yl]-2-thiophenecarboxamide hydrochloride]"
< 100,< 500,"C[C@@H](Oc1cc(-n2cnc3cc(-c4cnn(C)c4)ccc32)sc1C(N)=O)c1cccc(OCCN(C)C)c1Cl [Example 8, 3-{[(1R)-1-(2-chloro-3-{[2-(dimethylamino)ethyl]oxy}phenyl)ethyl]oxy}-5-[5-(1-methyl-1H-pyrazol-4-yl)-1H-benzimidazol-1-yl]-2-thiophenecarboxamide]"
< 100,< 500,"C[C@@H](Oc1cc(-n2cnc3cc(-c4cnn(C)c4)ccc32)sc1C(N)=O)c1cccc(OCCCN(C)C)c1Cl [Example 9, 3-{[(1R)-1-(2-chloro-3-{[3-(dimethylamino)propyl]oxy}phenyl)ethyl]oxy}-5-[5-(1-methyl-1H-pyrazol-4-yl)-1H-benzimidazol-1-yl]-2-thiophenecarboxamide]"
